Reference: patent US10785975B2, “Water and feed antimicrobial preservative” (priority 2009, dated 2020)
Read-outs that look alike come from different tables or passages of the source.

Columns and labels:
Salmonella typhimurium [1] = assay: Example 2: effect of carbon chain length of individual organic acids on antimicrobial activity in water; format: cell-based; set-up: MIC at 4 HR / MIC at 24 FIR: unit not given here; conditions: for killing at […] / killing at 0.05 % / killing at 0.075 % / killing at 0.1 %: Salmonella enterica, TYPHIMURIUM; for MIC at 4 HR / MIC at 24 FIR: Minimum Inhibitory Concentration of Organic Acids against Salmonella, by linear regression; for MIC at 24 FIR: 24 hours
Protocol: 100 ul of a nutrient broth culture of Salmonella typhimurium was added to each dilution tube. After addition, tubes were vortexed and allowed to stand. At 4 and 24 hours after addition of the inoculum, 100 ul of the solution was plated on agar (triplicate plates). Plates were incubated at 37° C. for 24 hours prior to enumeration. The minimum effective dose of each acid was be determined by linear regression: […]

Salmonella typhimurium [2] = assay: Example 1: effect of pH buffering of acetic and propionic acid on antimicrobial activity in water; format: cell-based; conditions: for MIC at 4 Hr / MIC at 24 HR: Minimum Inhibitory Concentrations, by linear regression over 0.025-0.1% acid solutions
Protocol: Propionic and acetic acids were buffered with ammonium hydroxide to pHs ranging from 1 to 7. Acid contents of the buffered solutions were determined by a weight to weight ratio calculation to obtain the same acid content in the test solutions. […] The pHs of the deionized water solutions were recorded and any problems with solubility noted.
100 ul of a nutrient broth culture of Salmonella typhimurium was added to each dilution tube. After addition, tubes were vortexed and allowed to stand. At 4 and 24 hours after addition of the inoculum, 100 ul of the solution was plated on Standard Plate agar (triplicate plates). Plates were incubated at 37° C. for 24 hours prior to enumeration. The minimum effective dose of each acid was determined by linear regression.

[3] = Product Conc. 0.025 (% acid solution in water), 4 hr
[4] = Product Conc. 0.025 (% acid solution in water), 24 hr
[5] = Product Conc. 0.05 (% acid solution in water), 4 hr
[6] = Product Conc. 0.05 (% acid solution in water), 24 hr
[7] = Product Conc. 0.075 (% acid solution in water), 4 hr
[8] = Product Conc. 0.075 (% acid solution in water), 24 hr
[9] = Product Conc. 0.1 (% acid solution in water), 4 hr
[10] = Product Conc. 0.1 (% acid solution in water), 24 hr
[11] = Product Conc. 0.025 (% acid solution in water), 4 hr, read-out: Salmonella at time Interval 4 hr % reduction
[12] = Product Conc. 0.025 (% acid solution in water), 24 hr, read-out: Salmonella at time Interval 24 hr % reduction
[13] = Product Conc. 0.05 (% acid solution in water), 4 hr, read-out: Salmonella at time Interval 4 hr % reduction
[14] = Product Conc. 0.05 (% acid solution in water), 24 hr, read-out: Salmonella at time Interval 24 hr % reduction
[15] = Product Conc. 0.075 (% acid solution in water), 4 hr, read-out: Salmonella at time Interval 4 hr % reduction
[16] = Product Conc. 0.075 (% acid solution in water), 24 hr, read-out: Salmonella at time Interval 24 hr % reduction
[17] = Product Conc. 0.1 (% acid solution in water), 4 hr, read-out: Salmonella at time Interval 4 hr % reduction
[18] = Product Conc. 0.1 (% acid solution in water), 24 hr, read-out: Salmonella at time Interval 24 hr % reduction
[19] = 4 h, read-out: Salmonella at time Interval 4 hr % reduction
[20] = 24 h, read-out: Salmonella at time Interval 24 hr % reduction
[21] = Product Conc. 0.025 (% acid solution in water)
[22] = Product Conc. 0.05 (% acid solution in water)
[23] = Product Conc. 0.075 (% acid solution in water)
[24] = Product Conc. 0.1 (% acid solution in water)

| SMILES | Salmonella at time Interval 4 hr cfu/g (Salmonella typhimurium [1]; [3]) [cfu/g] | Salmonella at time Interval 24 hr cfu/g (Salmonella typhimurium [1]; [4]) [cfu/g] | Salmonella at time Interval 4 hr cfu/g (Salmonella typhimurium [1]; [5]) [cfu/g] | Salmonella at time Interval 24 hr cfu/g (Salmonella typhimurium [1]; [6]) [cfu/g] | Salmonella at time Interval 4 hr cfu/g (Salmonella typhimurium [1]; [7]) [cfu/g] | Salmonella at time Interval 24 hr cfu/g (Salmonella typhimurium [1]; [8]) [cfu/g] | Salmonella at time Interval 4 hr cfu/g (Salmonella typhimurium [1]; [9]) [cfu/g] | Salmonella at time Interval 24 hr cfu/g (Salmonella typhimurium [1]; [10]) [cfu/g] | killing at […] (Salmonella typhimurium [1]; [11]) [%] | killing at […] (Salmonella typhimurium [1]; [12]) [%] | killing at 0.05 % (Salmonella typhimurium [1]; [13]) [%] | killing at 0.05 % (Salmonella typhimurium [1]; [14]) [%] | killing at 0.075 % (Salmonella typhimurium [1]; [15]) [%] | killing at 0.075 % (Salmonella typhimurium [1]; [16]) [%] | killing at 0.1 % (Salmonella typhimurium [1]; [17]) [%] | killing at 0.1 % (Salmonella typhimurium [1]; [18]) [%] | MIC at 4 HR (Salmonella typhimurium [1]; 4 hr) | MIC at 24 FIR (Salmonella typhimurium [1]) | Salmonella at time Interval 4 hr % reduction (Salmonella typhimurium [2]; [21]) [%] | Salmonella at time Interval 4 hr cfu/g (Salmonella typhimurium [2]; [21]) [cfu/g] | further results |
| --- | --- | --- | --- | --- | --- | --- | --- | --- | --- | --- | --- | --- | --- | --- | --- | --- | --- | --- | --- | --- | --- |
| CCCCCCCCC(=O)O [Pelargonic acid/KOH, Pelargonic acid] | 7 | 0 | 0 | 0 | 0 | 0 | 0 | 0 | 100 | 100 | 100 | 100 | 100 | 100 | 100 | 100 | – | – | – | – | – |
| CCCCCC(=O)O [Caproic acid] | 1267 | 30 | 1433 | 7 | 523 | 0 | 27 | 0 | – | – | – | – | – | – | – | – | 0.103 | 0.063 | – | – | killing at 0.05 % (Salmonella typhimurium [1]; [19]): 10%; killing at 0.075 % (Salmonella typhimurium [1]; [19]): 67%; killing at 0.1 % (Salmonella typhimurium [1]; [19]): 98%; killing at […] (Salmonella typhimurium [1]; [19]): 21%; killing at 0.05 % (Salmonella typhimurium [1]; [20]): 100%; killing at 0.075 % (Salmonella typhimurium [1]; [20]): 100%; killing at 0.1 % (Salmonella typhimurium [1]; [20]): 100%; killing at […] (Salmonella typhimurium [1]; [20]): 98% |
| CCCCCCC(=O)O [Oenanthic acid] | 1103 | 10 | 0 | 0 | 0 | 0 | 0 | 0 | – | – | – | – | – | – | – | – | 0.075 | 0.063 | – | – | Salmonella at time Interval 4 hr % reduction (Salmonella typhimurium [1]; [3]): 31%; Salmonella at time Interval 24 hr % reduction (Salmonella typhimurium [1]; [4]): 99%; Salmonella at time Interval 4 hr % reduction (Salmonella typhimurium [1]; [5]): 100%; Salmonella at time Interval 24 hr % reduction (Salmonella typhimurium [1]; [6]): 100%; Salmonella at time Interval 4 hr % reduction (Salmonella typhimurium [1]; [7]): 100%; Salmonella at time Interval 24 hr % reduction (Salmonella typhimurium [1]; [8]): 100%; Salmonella at time Interval 4 hr % reduction (Salmonella typhimurium [1]; [9]): 100%; Salmonella at time Interval 24 hr % reduction (Salmonella typhimurium [1]; [10]): 100% |
| CCCCCCCC(=O)O [Caprylic acid/KOH, Caprylic acid] | 1567 | 1400 | 1333 | 797 | 1100 | 77 | 0 | 0 | 2 | 18 | 17 | 53 | 31 | 95 | 100 | 100 | 0.109 | 0.090 | – | – | – |
| CCCCCCCCCCCC(=O)O [Lauric acid/KOH, Lauric acid] | 670 | 20 | 0 | 0 | 0 | 0 | 0 | 0 | 58 | 99 | 100 | 100 | 100 | 100 | 100 | 100 | 0.072 | <0.025 | – | – | – |
| CCC(=O)O [Propionic pH 4, Propionic acid] | – | – | – | – | – | – | – | – | – | – | – | – | – | – | – | – | – | – | 9 | 1367 | MIC at 4 Hr (Salmonella typhimurium [2]; pH 4): 0.237; MIC at 24 HR (Salmonella typhimurium [2]; pH 4): 0.091; Salmonella at time Interval 24 hr % reduction (Salmonella typhimurium [2]; [21]): 48%; Salmonella at time Interval 24 hr cfu/g (Salmonella typhimurium [2]; [21]): 615 cfu/g; Salmonella at time Interval 4 hr % reduction (Salmonella typhimurium [2]; [22]): 20%; Salmonella at time Interval 4 hr cfu/g (Salmonella typhimurium [2]; [22]): 1200 cfu/g; Salmonella at time Interval 24 hr % reduction (Salmonella typhimurium [2]; [22]): 75%; Salmonella at time Interval 24 hr cfu/g (Salmonella typhimurium [2]; [22]): 293 cfu/g; Salmonella at time Interval 4 hr % reduction (Salmonella typhimurium [2]; [23]): 37%; Salmonella at time Interval 4 hr cfu/g (Salmonella typhimurium [2]; [23]): 943 cfu/g; Salmonella at time Interval 24 hr % reduction (Salmonella typhimurium [2]; [23]): 84%; Salmonella at time Interval 24 hr cfu/g (Salmonella typhimurium [2]; [23]): 187 cfu/g; Salmonella at time Interval 4 hr % reduction (Salmonella typhimurium [2]; [24]): 22%; Salmonella at time Interval 24 hr % reduction (Salmonella typhimurium [2]; [24]): 86%; Salmonella at time Interval 24 hr cfu/g (Salmonella typhimurium [2]; [24]): 163 cfu/g |
| CCCCC(=O)O [Valeric acid] | 1233 | 533 | 1267 | 73 | 990 | 37 | 657 | 17 | 23 | 69 | 21 | 96 | 38 | 98 | 59 | 99 | 0.174 | 0.070 | – | – | – |
| CC(=O)O [Acetic pH 7, Acetic acid] | – | – | – | – | – | – | – | – | – | – | – | – | – | – | – | – | – | – | 0 | 1567 | Salmonella at time Interval 24 hr % reduction (Salmonella typhimurium [2]; [21]): 0%; Salmonella at time Interval 4 hr % reduction (Salmonella typhimurium [2]; [22]): 0%; Salmonella at time Interval 4 hr cfu/g (Salmonella typhimurium [2]; [22]): 1600 cfu/g; Salmonella at time Interval 24 hr % reduction (Salmonella typhimurium [2]; [22]): 0%; Salmonella at time Interval 24 hr cfu/g (Salmonella typhimurium [2]; [22]): 1433 cfu/g; Salmonella at time Interval 4 hr % reduction (Salmonella typhimurium [2]; [23]): 2%; Salmonella at time Interval 4 hr cfu/g (Salmonella typhimurium [2]; [23]): 1467 cfu/g; Salmonella at time Interval 24 hr % reduction (Salmonella typhimurium [2]; [23]): 0%; Salmonella at time Interval 24 hr cfu/g (Salmonella typhimurium [2]; [23]): 1433 cfu/g; Salmonella at time Interval 4 hr % reduction (Salmonella typhimurium [2]; [24]): 0%; Salmonella at time Interval 4 hr cfu/g (Salmonella typhimurium [2]; [24]): 1567 cfu/g; Salmonella at time Interval 24 hr % reduction (Salmonella typhimurium [2]; [24]): 0% |
| CCC(=O)O [Propionic pH 2, Propionic acid] | – | – | – | – | – | – | – | – | – | – | – | – | – | – | – | – | – | – | 29 | 1067 | MIC at 4 Hr (Salmonella typhimurium [2]; pH 2): 0.120; MIC at 24 HR (Salmonella typhimurium [2]; pH 2): 0.064; Salmonella at time Interval 24 hr % reduction (Salmonella typhimurium [2]; [21]): 94%; Salmonella at time Interval 24 hr cfu/g (Salmonella typhimurium [2]; [21]): 70 cfu/g; Salmonella at time Interval 4 hr % reduction (Salmonella typhimurium [2]; [22]): 51%; Salmonella at time Interval 4 hr cfu/g (Salmonella typhimurium [2]; [22]): 733 cfu/g; Salmonella at time Interval 24 hr % reduction (Salmonella typhimurium [2]; [22]): 99%; Salmonella at time Interval 24 hr cfu/g (Salmonella typhimurium [2]; [22]): 10 cfu/g; Salmonella at time Interval 4 hr % reduction (Salmonella typhimurium [2]; [23]): 68%; Salmonella at time Interval 4 hr cfu/g (Salmonella typhimurium [2]; [23]): 477 cfu/g; Salmonella at time Interval 24 hr % reduction (Salmonella typhimurium [2]; [23]): 99%; Salmonella at time Interval 24 hr cfu/g (Salmonella typhimurium [2]; [23]): 13 cfu/g; Salmonella at time Interval 4 hr % reduction (Salmonella typhimurium [2]; [24]): 75%; Salmonella at time Interval 4 hr cfu/g (Salmonella typhimurium [2]; [24]): 380 cfu/g; Salmonella at time Interval 24 hr % reduction (Salmonella typhimurium [2]; [24]): 99%; Salmonella at time Interval 24 hr cfu/g (Salmonella typhimurium [2]; [24]): 7 cfu/g |
